{
  "source": "patent US11767316B2",
  "about": "“Non-fused thiophene derivatives and their uses” (ENYO PHARMA, priority 2018, dated 2023)",
  "key": {"[1]": {"target": "T1, CISD2 Gene Product (NAF-1) (Homo sapiens, UniProt Q8N5K1)", "T1 sequence (Q8N5K1 57-135 limits assumed)": "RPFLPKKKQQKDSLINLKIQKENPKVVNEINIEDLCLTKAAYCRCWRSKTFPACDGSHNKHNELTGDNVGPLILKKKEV", "experiment": "Stability of Fe-S cluster binding of purified NEET protein (absorbance 458 nm), NAF-1", "format": "biochemical", "experimental": "The modulator effect on the NEET proteins encoded by human CISD1, CISD2, and CISD3 genes by the compounds of the invention has been tested and is reported below. Particularly, the biochemical function of the NEET proteins is measured by the stability of Fe—S cluster binding of the purified NEET proteins.\nThe Fe—S cluster binding capacity of NEET proteins is known to be coordinated by four amino-acids in a stretch of 16 (three Cysteine and one Histidine). As the lability of the Fe—S cluster of NEET proteins is sensitive to the environment, cluster stability measurements are one of the measures of interactions of NEET proteins with small molecules and compounds. NEET protein/2Fe-2S cluster stability can be assessed by monitoring the decay in absorbance of its characteristic 458-nm peak (characteristic of the oxidized 2Fe-2S cluster) over time. Each NEET protein (mitoNEET, NAF-1 and Miner 2) was tested for its Fe—S binding in the absence or presence of a compound according to the invention (see table 3 below). […]\nAt pH 6, all the three NEET proteins (mitoNEET, NAF-1 and Miner 2) have a characteristic rate of loss of the bound Fe—S cluster that can be measured by the decrease of absorbance at wavelength 458 nm over time, using a spectrophotometer. […]\nA reaction mix containing DMSO diluted in the Bis-Tris Buffer with or without a compound of the invention was prepared. […] The absorbance at wavelength 458 nm was taken at 5 minutes intervals at 37° C. with a spectrofluorimeter. […]\nIn addition to time monitoring, residual bound Fe—S cluster to NEET protein was measured at the final point of the spectrometry assay for each Test sample and compared to the Control sample data (in parenthesis table 3). This residual binding is measured by the differential percentage between the absorbance 458 nm at time zero and the absorbance 458 nm at the end of the experiment (i.e. respectively 500 or 180 minutes as described hereabove), showing the percentage of NEET protein still able to bind a Fe—S cluster. […]"}, "PRXF PC-3M": {"system": "PRXF PC-3M", "experiment": "Cytotoxicity, propidium iodide based monolayer assay, PRXF PC-3M", "format": "cell-based", "details": "Homo sapiens, 96 h; PRXF PC-3M (prostate adeno carcinoma), four days of treatment, T/C=50%; read-out: Absolute IC50", "experimental": "The cytotoxicity was tested for compounds of the invention on five different cell-lines, namely LXFL 1121, MAXF 401, MMXF L-636, PRXF PC-3M and UXF 1138 which are respectively lung large cell carcinoma, breast adeno carcinoma, multiple myeloma, prostate adeno carcinoma and uterine sarcoma.\nA working stock solution of the test compounds was prepared in DMSO at a concentration of 33 mM or 8.25 mM, and small aliquots were stored at −20° C. On each day of an experiment, a frozen aliquot of the working stock solution was thawed and stored at room temperature prior to and during treatment.\nAll liquid handling steps were performed using the Tecan Freedom EVO 200 platform. First, serial 2-fold dilutions of the 33 mM DMSO working stock solution were done in DMSO. […]\nA modified propidium iodide (PI) based monolayer assay was used to assess the anti-cancer activity of the compounds. Briefly, cells were harvested from exponential phase cultures, counted and plated in 96 well flat-bottom microtiter plates at a cell density of 4,000 to 40,000 cells/well dependent on the cell line's growth rate. […] After an incubation period of 1-2 hours at room temperature, fluorescence (FU) was measured using the Enspire Multimode Plate Reader (excitation λ=530 nm, emission λ=620 nm) to quantify the amount of attached viable cells. […]"}},
  "data": [
    {"molecule": "O=C(Nc1scc(C2CCc3ccccc3C2)c1C(=O)O)c1ccccc1", "note": "(stereo not shown) [#16]", "values": [
      {"measurement": "Time (in minutes) to achieve 50% loss of bound cluster (Absorbance 458 nm)", "setting": "[1]; NAF-1 20 μM, compound 60 μM, pH 6, 37° C., vehicle control 310", "result": "35 (310) minutes"},
      {"measurement": "Residual cluster bound at end of experiment (Percentage Absorbance 458 nm at time zero)", "setting": "[1]; NAF-1, end of experiment 500 minutes, compound 60 μM, pH 6, vehicle control 3%", "result": "4% (3%)"},
      {"measurement": "Stabiliser or destabiliser of NEET protein/Fe-S cluster binding", "setting": "[1]; NAF-1, destabiliser = time to 50% cluster loss decreased by more than 25% vs control", "result": "destabilisers"},
      {"measurement": "IC50", "setting": "PRXF PC-3M", "result": 485, "unit": "nM"}
    ]}
  ]
}
